Source: ChEMBL document CHEMBL5331060, “Bisindole natural products: A vital source for the development of new anticancer drugs” (Eur J Med Chem, 2022)
Values after ≈ are worked out from the molar mass of the structure shown. One block for each compound: values may come before it.

What was measured:
CAKI-2 = experiment: Antiproliferative activity against human CAKI-2 cells assessed as inhibition of cell growth incubated for 24 hrs by SRB assay; format: functional, cell-based; details: CAKI-2, 24 h
MCF7 [1] = experiment: Antiproliferative activity against human MCF7 cells assessed as inhibition of cell growth incubated for 24 hrs by SRB assay; format: functional, cell-based; details: MCF7, 24 h
LS174T = experiment: Antiproliferative activity against human LS174T cells assessed as inhibition of cell growth incubated for 24 hrs by SRB assay; format: functional, cell-based
[2] = Antiproliferative activity against human StMl1 1a cells assessed as inhibition of cell growth incubated for 24 hrs by SRB assay; format: functional, cell-based
A549 = experiment: Antiproliferative activity against human A549 cells assessed as inhibition of cell growth; format: functional, cell-based
HCT-8 = experiment: Antiproliferative activity against human HCT-8 cells assessed as inhibition of cell growth; format: functional, cell-based
[3] = Antiproliferative activity against human MDA-MB cells assessed as inhibition of cell growth; format: functional, cell-based
PANC-1 = experiment: Antiproliferative activity against human PANC-1 cells assessed as inhibition of cell growth incubated for 72 hrs by MTT assay; format: functional, cell-based; details: PANC-1, 72 h
MIA PaCa-2 = experiment: Antiproliferative activity against human MIA PaCa-2 cells assessed as inhibition of cell growth incubated for 72 hrs by MTT assay; format: functional, cell-based; details: MIA PaCa-2, 72 h
BXPC-3 = experiment: Antiproliferative activity against human BXPC-3 cells assessed as inhibition of cell growth incubated for 72 hrs by MTT assay; format: functional, cell-based; details: BXPC-3, 72 h
ASPC1 = experiment: Antiproliferative activity against human ASPC1 cells assessed as inhibition of cell growth incubated for 72 hrs by MTT assay; format: functional, cell-based; details: ASPC1, 72 h
HL-60 = experiment: Antiproliferative activity against human HL-60 cells assessed as inhibition of cell growth; format: functional, cell-based
SMMC-7721 = experiment: Antiproliferative activity against human SMMC-7721 cells assessed as inhibition of cell growth; format: functional, cell-based
MCF7 [4] = experiment: Antiproliferative activity against human MCF7 cells assessed as inhibition of cell growth; format: functional, cell-based
SW480 = experiment: Antiproliferative activity against human SW480 cells assessed as inhibition of cell growth; format: functional, cell-based
HCT-116 [5] = experiment: Antiproliferative activity against human HCT-116 cells assessed as inhibition of cell growth incubated for 24 hrs by MTT assay; format: functional, cell-based; details: HCT-116, 24 h
MDA-MB-231 [6] = experiment: Antiproliferative activity against human MDA-MB-231 cells assessed as inhibition of cell growth incubated for 72 hrs by MTT assay; format: functional, cell-based; details: MDA-MB-231, 72 h
Huh-7 = experiment: Antiproliferative activity against human Huh-7 cells assessed as inhibition of cell growth incubated for 72 hrs by MTT assay; format: functional, cell-based; details: Huh-7, 72 h
[7] = Antiproliferative activity against human AV3 cells assessed as inhibition of cell growth incubated for 72 hrs by MTT assay; format: functional, cell-based; details: AV3, 72 h
HCT-116 [8] = experiment: Antiproliferative activity against human HCT-116 cells assessed as inhibition of cell growth; format: functional, cell-based
CCRF-CEM = experiment: Antiproliferative activity against human CCRF-CEM cells assessed as inhibition of cell growth by MTT assay; format: functional, cell-based
B16 = experiment: Antiproliferative activity against B16 cells assessed as inhibition of cell growth by MTT assay; format: functional, cell-based; details: Mus musculus
NCI-H460 = experiment: Antiproliferative activity against human NCI-H460 cells assessed as inhibition of cell growth by MTT assay; format: functional, cell-based
HT-29 [9] = experiment: Antiproliferative activity against human HT-29 cells assessed as inhibition of cell growth incubated for 48 hrs by SRB assay; format: functional, cell-based; details: HT-29, 48 h
L1210 = experiment: Antiproliferative activity against mouse L1210 cells assessed as inhibition of cell growth; format: functional; details: L1210, read-out: ED50
[10] = Antiproliferative activity against vincristine-resistant human KB cells assessed as inhibition of cell growth; format: functional, cell-based
HT-29 [11] = experiment: Antiproliferative activity against human HT-29 cells assessed as inhibition of cell growth; format: functional, cell-based
KB = experiment: Antiproliferative activity against vincristine-sensitive human KB cells assessed as inhibition of cell growth; format: functional, cell-based
PC-3 = experiment: Antiproliferative activity against human PC-3 cells assessed as inhibition of cell growth; format: functional, cell-based
MDA-MB-231 [12] = experiment: Antiproliferative activity against human MDA-MB-231 cells assessed as inhibition of cell growth; format: functional, cell-based

Structure (SMILES): C/C=C1/CN2CC[C@@H]3c4ccccc4N4[C@H](C(=O)OC)[C@H]1C[C@H]2[C@]34/C=C/C1=COC[C@@H]2[C@H]1C[C@H]1c3c(c4ccccc4n3C)C[C@@H]2N1C
IC50 (CAKI-2): 2000 nM
IC50 (MCF7 [1]): 2000 nM
IC50 (LS174T): 2000 nM
IC50 [2]: 2000 nM

Structure (SMILES): CN1C[C@H](c2c[nH]c3c(Br)c(Br)cc(O)c23)NC[C@H]1c1c[nH]c2cc(Br)ccc12
IC50 (A549): 1 µg/mL
IC50 (HCT-8): 1 µg/mL (≈ 1.71 µM)
IC50 [3]: 1 µg/mL (≈ 1.71 µM)

Structure (SMILES): N=C(N)NCCSc1nc(-c2c[nH]c3cc(Br)ccc23)cnc1-c1c[nH]c2cc(Br)ccc12
IC50 (PANC-1): 18000 nM
IC50 (MIA PaCa-2): 26000 nM
IC50 (BXPC-3): 14000 nM
IC50 (ASPC1): 27000 nM

Structure (SMILES): C/C=C1\CN(C)[C@H]2Cc3c([nH]c4ccccc34)[C@H](c3c(O)ccc4c5c([nH]c34)[C@]3(C(=O)OC)C[C@@H]4C[C@H](CC)[C@@H]3N(CC5)C4)C[C@H]1[C@]2(CO)C(=O)OC
IC50 (A549): 170 nM
IC50 (HL-60): 170 nM
IC50 (SMMC-7721): 170 nM
IC50 (MCF7 [4]): 170 nM
IC50 (SW480): 170 nM

Structure (SMILES): O=C1C[C@@H]2c3ccc(O)c(O)c3[C@@]3(Nc4ccccc4C3=O)[C@@]23C(=O)c2ccccc2N13
IC50 (HCT-116 [5]): 78000 nM

Structure (SMILES): C=C1[C@H]2C[C@@H]3N(CC[C@@]34c3cccc5c3N(C[C@H]3[C@H]6C[C@@H]7N(CC[C@@]78c7ccccc7N[C@@]538)C[C@H]6CC)[C@@H]14)C[C@H]2CC
IC50 (A549): 3800 nM
IC50 (HL-60): 3800 nM
IC50 (MCF7 [4]): 3800 nM
IC50 (HCT-116 [8]): 3800 nM

Structure (SMILES): COC(=O)c1[nH]cc2c1[C@]1(CN(C)c3ccc(Cl)cc31)c1[nH]c3ccc(Cl)cc3c1-2
IC50 (CCRF-CEM): 4 µg/mL (≈ 9.13 µM)
IC50 (B16): 5 µg/mL (≈ 11.4 µM)
IC50 (NCI-H460): 12 µg/mL (≈ 27.4 µM)

Structure (SMILES): CN1C[C@H](c2c[nH]c3cc(Br)ccc23)NC[C@H]1c1c[nH]c2cc(Br)ccc12
EC50 (L1210): 10 µg/mL (≈ 20.5 µM)

Now from value to compound, other results behind:

IC50 (MDA-MB-231 [6]): 9800 nM
IC50 (Huh-7): 9800 nM
Structure (SMILES): C/C=C1/CCN2CC[C@@]34c5cc6c(cc5N(C)[C@]35OC[C@]4(C(=O)OC)[C@@H]1[C@H]25)O[C@@]12[C@@H]3C[C@H]4/C(=C\C)CN3CC[C@]1(C6)c1ccccc1N2[C@@H]4C(=O)OC
IC50 [7]: 9800 nM

IC50 (MDA-MB-231 [6]): 9800 nM
IC50 (Huh-7): 9800 nM
Structure (SMILES): C/C=C1/CCN2CC[C@@]34c5cc6c(cc5N(C)[C@]35OC[C@]4(C(=O)OC)[C@@H]1[C@H]25)O[C@@]12[C@@H]3C[C@H]4/C(=C\C)CN3CC[C@]1(C6)c1ccccc1N2[C@]4(CO)C(=O)OC
IC50 [7]: 9800 nM

IC50 (MCF7 [1]): 2000 nM
IC50 (HT-29 [9]): 8000 nM
Structure (SMILES): C/C=C1/CN2CC[C@@]34C[C@H]5[C@@H]6C[C@H]7c8c(c9ccccc9n8C)C[C@@H]([C@@H]6CO[C@@]5(C)O[C@@]35[C@@H]2C[C@@H]1[C@@H](C(=O)OC)N5c1ccccc14)N7C
IC50 (CAKI-2): 2000 nM
IC50 (LS174T): 2000 nM
IC50 [2]: 2000 nM

IC50 (A549): 1300 nM
IC50 (MCF7 [4]): 1300 nM
IC50 (HCT-116 [8]): 1300 nM
IC50 (HT-29 [11]): 1300 nM
IC50 (KB): 1300 nM
IC50 (PC-3): 1300 nM
IC50 (MDA-MB-231 [12]): 1300 nM
Structure (SMILES): C/C=C1/CN2CC[C@]34C(=C(CN5c6ccccc6[C@@]67CCN8CCC[C@]9(CC[C@]56[C@H](C(=O)OC)C9)[C@H]87)[C@H]1C[C@H]23)Nc1ccccc14
IC50 [10]: 1300 nM
